The values below come from paper PMC12029982, “The Mechanism of a Novel Mitochondrial-Targeted Icaritin Derivative in Regulating Apoptosis of BEL-7402 Cells Based on the SIRT3 and CypD-Mediated ROS/p38 MAPK Signaling Pathway” (Molecules, 2025).

“Also recorded” adds a separate entry of the source.

For data set [1], the system named is BEL-7402 cells. Description: DCFH-DA probe, intracellular ROS by flow cytometry. Format: cell-based, human. The note with it: 48-h treatment, dose-dependent. The method, then:
Drug grouping and administration were performed as described in Section 2.6. After 48 h of incubation, 500 μL of DCFH-DA probe (Beyotime, Nanjing, China) was added to each well. The cells were stained for 30 min at 37 °C and protected from light. The dye was then discarded, and the cells were washed three times with a serum-free medium. Samples were analyzed using flow cytometry with an excitation wavelength of 480 nm and an emission wavelength of 525 nm.
(A flow cytometer gives signals particle by particle.)

The test system of a further data set is BEL-7402. Description: MTT assay, antiproliferative activity. The settings on record: Homo sapiens, 48 h drug exposure, mean ± SD. Format: cell-based. The procedure: (§1) Human cancer cell lines BEL-7402, A549, MCF-7, PC-3M, and normal renal cell line HEK293 were bought from the BeNa Culture Collection (Beijing, China). BEL7402, A549, and PC-3M were cultured in RPMI 1640 medium (Gibco, Carlsbad, CA, USA). MCF-7 and HEK293 were cultured in the DMEM medium (Gibco, CA, USA). The medium was supplemented with 10% fetal bovine serum (FBS) (CLARK, San Diego, CA, USA), 100 U/mL penicillin, and 0.1 mg/mL streptomycin (Beyotime, Nanjing, China). The cells were incubated in 5% CO2 at 37 °C.
(§2) The MTT assay was employed to assess the inhibitory effect of each compound on cell growth. A549, PC-3M, MCF-7, BEL-7402, and HEK293 cells in the logarithmic growth phase were seeded in 96-well culture plates at an inoculum density of 5 × 10^4 cells/mL. After overnight incubation at 37 °C in a 5% CO2 atmosphere, the cells fully adhered to the surface. Different concentrations of sample solutions (0, 3.125, 6.25, 12.5, 25, 50, 100 μmol/L) were added (100 μL) to treat the cells. After 48 h of drug treatment, 10 μL of a 5 mg/mL MTT solution was added to each well and incubated for 4 h at 37 °C. The supernatant was then discarded, and 150 μL of DMSO was added to dissolve the formazan. The mixture was shaken at room temperature for 15 min, and the absorbance (D) value was measured at 490 nm using a Microplate Reader (HBS-ScanY, Nanjing, China). The drug IC50 values were calculated using GraphPad Prism (v10.0). Each cell viability experiment was performed in triplicate.
A general note: Formazan colour is commonly taken as a measure of viable cells.

Another data set has as its system A549. As to the kind of experiment: MTT assay, antiproliferative activity. The note with it: Homo sapiens, 48 h drug exposure, mean ± SD. Format: cell-based. The procedure:
as §1, §2

A further data set concerns PC-3M. Description: MTT assay, antiproliferative activity. Format: cell-based. The settings on record: Homo sapiens, 48 h drug exposure, mean ± SD. The procedure:
as §1, §2

A further data set concerns MCF-7. As to the kind of experiment: MTT assay, antiproliferative activity. Format: cell-based. The note with it: Homo sapiens, MCF7, 48 h drug exposure, mean ± SD. The method, then: as §1, §2
A further data set relates to HEK293. Description: MTT assay, cytotoxicity to normal cell line. In kind it is cell-based, human. The procedure: as §1, §2
Data set [2] relates to BEL-7402 cells. Description: Calcein AM/CoCl2 probe, MPTP opening. In kind it is cell-based, human. The settings on record: increasing drug concentration, 24 h. The method, then:
Drug grouping and administration were performed as described in Section 2.5. After 24 h of incubation, 500 μL of staining solution (containing 2 μM Calcein AM and 5 mM CoCl2) (Aladdin, Shanghai, China) was added to each well. The cells were stained for 30 min at 37 °C and protected from light. After staining, the solution was discarded, and the cells were washed twice with PBS. The cells were then observed under an inverted fluorescence microscope.

Data set [3] concerns mitochondria of BEL-7402 cells. As to the kind of experiment: HPLC analysis of accumulation in mitochondria. Format: cell-based, human. The settings on record: 10 μM. The method, then:
BEL-7402 cells were cultured in 100 mm Petri dishes. When the cell density reached 90%, the cells were treated with different drugs, all at the same concentration (ICT and Mito-ICT-4 were both set at 10 μM). After 9 h of drug treatment, intracellular mitochondria were isolated from the different drug-treated groups using a mitochondrial isolation kit (Beyotime, Nanjing, China). The mitochondria were resuspended in 200 μL of phosphate-buffered saline (PBS), and an equal volume of anhydrous dichloromethane was added. Ultrasonic extraction was performed three times, and the lower organic phase was collected. Dichloromethane was removed, and the sample was resuspended in 200 μL of 0.1% formic acid in methanol. A 20 μL sample was analyzed and quantified by HPLC. HPLC analysis was conducted using an ALLTECH 26-201 (Jerome, CA, USA) with a flow rate of 1 mL/min. The stationary phase was Agilent ZORBAX SB-C18 (250 mm × 4.6 mm, 5 μm, Santa Clara, CA, USA), and the mobile phase consisted of methanol-0.1% formic acid in water (80:20).

For the next data set, the system named is SIRT3. Description: Western blot. In kind it is cell-based, human. The settings on record: 48 h. The procedure:
(§3) Drug grouping and administration were performed as described in Section 2.6. After 48 h of incubation, the supernatant was discarded, and the cells were washed twice with pre-cooled PBS. A volume of 150 µL of RIPA lysis buffer (Solarbio, Beijing, China) was added and incubated on ice. After sufficient lysis, the supernatant was centrifuged, and the protein concentration was determined using a BCA kit (Thermo, Waltham, MA, USA). The SDS-PAGE gel system was chosen based on the molecular weight of the target proteins to perform electrophoresis. After electrophoresis, the processed samples were transferred to a membrane and incubated at room temperature for 2 h to block non-specific binding. After membrane transfer, the membranes were incubated with primary antibodies against CypD (Proteintech Group, Wuhan, China), SIRT3 (Abcam, Cambridge, UK), P-MKK6 (Bioss, Beijing, China), P-P38 (Bioss, Beijing, China), DDIT3 (Bioss, Beijing, China), Cleaved-caspase-3 (Abcam, Cambridge, UK), and β-actin (ZSGB-BIO, Beijing, China) (1:1000) at 4 °C overnight. After primary antibody binding, the membranes were incubated with the corresponding secondary antibody (ZSGB-BIO, Beijing, China) (1:3000) at room temperature for 1 h. Immunoblot bands were detected using an enhanced chemiluminescence system (Analytik Jena AG, Jena, Germany). The bands were analyzed using ImageJ (v1.8.0) software.

For the next data set, the system named is P-MKK6. As to the kind of experiment: Western blot. In kind it is cell-based, human. The settings on record: with increasing concentrations vs blank control, p < 0.001. The procedure:
as §3
Background: In western blotting, separated proteins are transferred to a membrane and probed.

A further data set deals with P-P38. Description: Western blot. In kind it is cell-based, human. The settings on record: with increasing concentrations vs blank control, p < 0.001. The method, then: as §3
Another data set relates to DDIT3. Description: Western blot. The note with it: vs blank control, p < 0.001. Format: cell-based, human. The procedure: as §3
Another data set relates to Cl-caspase-3. As to the kind of experiment: Western blot. Format: cell-based, human. The settings on record: 48 h. The method, then:
as §3

In the next data set the test system is CypD. Description: Western blot. Format: cell-based, human. The settings on record: 48 h. The method, then: as §3
The mark [4] stands for this setting: low-concentration group vs control, p < 0.01.

In general, IC50 refers to the concentration needed to halve the response being measured. Read a low IC50 as greater potency. Turning to `COc1ccc(-c2oc3c(CC=C(C)C)c(OC(=O)CCCCCCCCCC[P+](c4ccccc4)(c4ccccc4)c4ccccc4)cc(O)c3c(=O)c2O)cc1` [Mito-ICT-4], the “intracellular ROS levels” value in the data set on BEL-7402 cells [1] is “significantly elevated”. Besides, the IC50 in the data set on BEL-7402 was found to be 0.73 ± 0.06 µM; in the data set with A549 it was 5.15 ± 0.59 µM; in the data set on PC-3M it was 11.3 ± 1.55 µM; in the data set on MCF-7, 10.8 ± 1.2 µM; in the data set with HEK293 (Homo sapiens, HEK293, MTT, 48 h drug exposure, mean ± SD, normal cell line), 67.1 ± 2.09 µM. The “reduction compared to ICT (cytotoxicity in HEK293 cells)” value in the data set on HEK293 (from IC50 values in HEK293) came to 55.4%. For the same compound, the “morphology with Calcein AM/CoCl2 (MPTP opening)” value in the data set with BEL-7402 cells [2] was “transitioned from oval to round and, ultimately, to an irregular shape”. The “fate after entering the mitochondria” value in [3] is “hydrolysis to ICT; also recorded: hydrolyzed to ICT”. The “accumulation in mitochondria relative to ICT” value in [3] (9 h) is reported as “approximately 2.5 times”. In addition, the SIRT3 expression levels entry in the data set on SIRT3 (setting [4]) was “decreased”; with SIRT3 (medium- and high-concentration groups vs control, p < 0.001) it was “significantly reduced”. Also, in the data set with P-MKK6, the “expression level of P-MKK6” value is recorded as “decreased significantly”. For the same compound, the “expression level of P-P38” value in the data set on P-P38 is “decreased significantly”. For the same compound, the “expression level of DDIT3” value in the data set on DDIT3 is given as “increased significantly”. Moreover, the “expression of Cl-caspase-3” value with Cl-caspase-3 (high-concentration group vs control, p < 0.001) is “significantly higher”; with Cl-caspase-3 (setting [4]) it was “elevated”. Also, the CypD protein expression entry in the data set with CypD (setting [4]) is given as “elevated”; in the data set on CypD (medium and high-concentration groups vs control, p < 0.001) it was “significantly higher”.
